Target: T1, VvHPL1 (VvMTh-HPL1; HPL1) (Vitis vinifera, UniProt F6HID6)
T1 sequence (F6HID6 1-487): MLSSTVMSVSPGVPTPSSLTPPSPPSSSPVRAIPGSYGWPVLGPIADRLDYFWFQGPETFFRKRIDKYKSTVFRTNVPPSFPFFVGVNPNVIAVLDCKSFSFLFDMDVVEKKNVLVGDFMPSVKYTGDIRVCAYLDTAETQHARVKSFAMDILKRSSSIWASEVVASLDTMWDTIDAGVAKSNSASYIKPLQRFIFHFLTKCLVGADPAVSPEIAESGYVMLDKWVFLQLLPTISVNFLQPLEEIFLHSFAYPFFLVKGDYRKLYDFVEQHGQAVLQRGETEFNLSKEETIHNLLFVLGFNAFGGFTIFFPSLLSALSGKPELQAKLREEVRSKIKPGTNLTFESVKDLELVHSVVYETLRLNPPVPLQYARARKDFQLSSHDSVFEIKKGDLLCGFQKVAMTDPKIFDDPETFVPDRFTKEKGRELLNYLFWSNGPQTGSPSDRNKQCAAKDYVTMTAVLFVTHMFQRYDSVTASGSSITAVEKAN
Experiment: SBSE TD-GC-MS of volatile products
Format: biochemical
Details: 40 µM substrate, 50 mM sodium phosphate pH 7.0, ambient temperature, 2 h; enzyme partially purified

SMILES	SBSE TD-GC-MS of volatile products
CC/C=C\C[C@@H](/C=C/C=C\CCCCCCCC(=O)O)OO [13(S)-hydroperoxy-9(Z),11(E), 15(Z)-octadecatrienoic acid]	13-HPOT as substrate yielded cis-3-hexenal and trans-2-hexenal
CCCCC[C@@H](/C=C/C=C\CCCCCCCC(=O)O)OO [13(S)-hydroperoxy-9(Z), 11(E)-octadecadienoic acid]	The major product from the conversion of 13-HPOD was hexanal
